Legend:
MDCKE11 cells = assay: cAMP production in renal tubular epithelial cells (MDCK); format: cell-based, canine; conditions: P<0.001 when compared to all other groups
Method: The culture medium was aspirated from RTEc monolayers, and the cells were washed three times with PBS. Madin-Darby canine kidney cell (MDCKc) monolayers were then overlaid with 5 mls PBS at room temperature on 100 mm culture dishes. cAMP phosphodiesterase inhibitor was added at a final concentration of 10 μM to all incubations to prevent the enzymatic degradation of cellular cAMP. Isoproterenol (ISO) at 10^−5M, bFGF (basic fibroblast growth factor) (20 ng/ml), or both were added to the treatment groups. Cells were incubated under an atmosphere of 95% air and 5% CO2 at 37° C. for 1, 3, 5, 10, 20, and 40 minute periods. Following the incubation period, 1.0 ml/plate aliquot samples were transferred to 12×75 mm polypropylene tubes, and immediately placed in a 0° C. ice bath. […] Total cellular protein was determined using the BCA (bicinchoninic acid) protein assay (Pierce, Rockford, Ill.) according to the manufacturers specification. The cAMP assays were done as prescribed by the manufacturer of the cAMP quantitation kit (Diagnostic Products Corporation, Los Angeles, Calif.); this procedure is patterned after a procedure described by Tovey et al. The procedure entails a competition of ^3H cAMP for cAMP binding protein, separation of free (unbound) cAMP by adsorption onto dextrancoated charcoal, followed by counting of bound ^3H by liquid scintillation (Izevbigie, Pediatr. Nephrol., 2000).

[1] = tested on: differentiated C2C12 cells; assay: cAMP production in differentiated C2C12 myoblasts; format: cell-based, mouse; conditions: isoproterenol 10, 0.1 or 0.001 μM, 37° C., 10 min
Method: Medium was aspirated from differentiated C2C12 cells, and monolayers were washed with PBS. Monolayers were then overlaid with PBS at 37° C. containing the following treatments: isoproterenol (ISO) at 10^−5, 10^−7, and 10^−9 M forskolin (positive control) at 5×10^−5 M, and negative control (no treatments). A cAMP phosphodiesterase inhibitor, imidazolidin, (10^−6 M) was added to all incubations to prevent enzymatic degradation of cAMP. Culture dishes were placed in a humidified incubator under an atmosphere of 95% air and 5% CO2 at 37° C. for 5-10 min. After the incubation, aliquots of incubation medium were quickly removed, chilled, and stored at −20° C. for cAMP determination (within 3 days). Cells were washed and frozen for later protein determination (Bradford, 1976). The cAMP assays were done as prescribed by the manufacturer of the cAMP quantitation kit (Diagnostic Products Corporation, Los Angeles, Calif.); this procedure is patterned after a procedure described by Tovey et al. The procedure entails a competition of ^3H cAMP for cAMP binding protein, separation of free (unbound) cAMP by adsorption onto dextran-coated charcoal, followed by counting of bound ^3H by liquid scintillation. […] Thus, cAMP production was determined as the sum of assayable cAMP in the PBS and within the cells.

HFMc = assay: cAMP accumulation in human fetal mesangial cells (extracellular cAMP, competitive 3H-cAMP binding kit); format: cell-based; conditions: 10 min; for cAMP accumulation compared with control cells: confluent serum-starved HFMc, Ang II 1 μM, bFGF 20 ng/ml, p<0.05
Method: The culture medium was aspirated from HFMc monolayers, and the cells were washed three times with PBS. Cell monolayers were then overlaid with PBS at room temperature on 100 mm culture dishes. A cAMP phosphodiesterase inhibitor was added to a final concentration of 10 μM to all incubations to prevent the enzymatic degradation of cellular cAMP. Isoproterenol (ISO) at 10^−5M, with or without bFGF (basic fibroblast growth factor) (20 ng/ml), or three doses of ISO (10^−5, 10^−7, 10^−9M) with 10^−6M angiotensin II (Ang II) were added to the treatment groups. Cells were incubated under an atmosphere of 95% air and 5% CO2 at 37° C. for 10 minutes. Following the incubation period, 1.0 ml/plate aliquot samples were transferred to 12×75 mm polypropylene tubes, and immediately placed in a 0° C. ice bath. The cell monolayers and 1.0 ml aliquots were stored at −20° C. for protein determination and cAMP analysis respectively. Total cellular protein was determined using the BCA (bicinchoninic acid) protein assay (Pierce, Rockford, Ill.) according to the manufacturers specification. The extracellular cAMP per plate was quantified using Diagnostic Corporation (Los Angeles, Calif.) kits according to the manufacturer's specifications; this procedure is patterned after a procedure described by Tovey et al. The procedure entails a competition of ^3H cAMP for cAMP binding protein, separation of free (unbound) cAMP by adsorption onto dextrancoated charcoal, followed by counting of bound ^3H by liquid scintillation (Izevbigie, Pediatr. Res., 2000).

| Compound | cAMP production (MDCKE11 cells) | cAMP production [1] | cAMP accumulation compared with control cells (HFMc) | modulation of isoproterenol-induced cAMP accumulation (HFMc; serum-starved HFMc, Ang II (1 µM) with different concentrations of isoproterenol, significant at 0.1 and 10 μM isoproterenol (p<0.05)) |
| --- | --- | --- | --- | --- |
| CC(C)NCC(O)c1ccc(O)c(O)c1 (centres unmarked) [Isoproterenol, isoproterenol] | induction of cAMP production | dose-dependent cAMP production | – | – |
| angiotensin II (DRVYIHPF; Angiotensin-2; UniProt P01019 25-32, looked up) [Ang II] | – | – | not | decreased |
| basic fibroblast growth factor [bFGF] | – | – | modest but significant increase | – |

Reference: US6541196B2, “Method for cAMP production” (Jackson State University, priority 2000, dated 2003)
